The subject of series [1] is human rhabdomyosarcoma cell line (RD). The series can be described thus: Apoptosis in RD cells (Hoechst staining, propidium iodide flow cytometry). It counts as cell-based. The settings on record: 20 nM SkQ1 for 24 hours; flow cytometry. As to the method: To determine the viability of the cells, chromatine condensation and fragmentation was analyzed in similarly-treated cells (20 nM SkQ or 1 mM NAC or 100 mM Trolox for 24 hours and 1 μm FCCP one hour before SkQ1 where indicated) after staining with Hoechst 3342 (GenScript, Cat. No. L00309, performed according to manufacture manual http://www.genscript.com/tech_guide/TM0361.pdf). The cells were then examined using an Axiovert fluorescent microscope equipped with objectives 20× (dry) and 100× (oil immersion Neofluar) (Carl Zeiss).
Further evidence of apoptosis was obtained by analysis of DNA content in the cellular population using flow cytometry. Cells were incubated with 0.05% ethanol was added (control) or with 20 nM SkQ1 for 24 hours, and then fixed and stained with propidium iodide (5 μM). They were then analyzed by flow cytometry using a FC-500 FACS (Beckman Coulter, Inc., Brea, Calif.).

Series [2] in a line: Mouse life-span when managed in a chamber without sterile aeration. The settings on record: SkQ1 added to drinking water. It counts as in vivo.
Series [3] relates to Mouse Ras-transformed fibroblast cells. The series can be described thus: Effect on morphology and adherence of Ras-transformed cells. It counts as cell-based. As to the method:
The experiment was carried out using cells, transformed with genetic construct, expressing oncogene RAS, and thus modeling conditions of cells underwent cancerous transformation. (see, model description in Levina, et al. (1996), Exp. Cell. Res., November 25; 229(1):159-165).
Mouse Ras-transformed fibroblast cells had strongly expressed changed morphology (FIG. 1), one close to morphology of metastasizing cancerous cells (decrease in surface square, cell elongation). […] Cells were poorly adherent and spread-eagled what led to monolayer structure disorder.
However incubation with SkQ1 led to significant changes in cells morphology (FIG. 1). […] Morphological changes correlated with actinic fibrils increase in content, focal contact reinforcement and cell better adherence to the surface.

The nature of series [4]: Tolerance to the treatment and autopsy in mice with A-431 xenografts. It counts as in vivo. As to the method: Tolerance to the treatment was estimated according to the time of death which corresponded to the treatment with each preparation.
Mice were sacrificed by ether anesthesia overdose. An autopsy was performed, and tumors were then extracted and assayed histologically and immunohistochemically. Tumors were fixed in 10% formaldehyde and set into paraffin wax. Histological assays were carried out on tumor histological sections, stained with hematoxylin and eosin. The number of microvessels was examined by standard immunological method using antibodies to CD34 antigen. Presence of vessel mimicry was estimated by tumor section staining with Schiffs reagent.

Series [5] has as its system human rhabdomyosarcoma cell line (RD). The experiment in a line: RD cell morphology, attachment and multinuclear cells. It counts as cell-based. As to the method:
In the following experiment, a human rhabdomyosarcoma cell line (RD) purchased from the ATCC (#CCL-136) was used. These cells were isolated from a […] 7 years ago and are widely accepted as a model for studies of rhabdomyosarcoma in vitro and in vivo.
The cells were grown in Dulbecco's modified Eagle's medium (DMEM, Gibco®, Invitrogen, Carlsbad, Calif.) supplemented with 10% FBS. The cells were treated with 20 nM SkQ (SkQ1, SkQR1, SkQB1, or SkQBP1), or with a non-targeted antioxidant (1 mM NAC, or 100 μM Trolox) 24 to 72 hours before evaluation. In some experiments 1 μM of the protonophorous uncoupler FCCP was added 1 hour before the addition of SkQ1 to depolarize the mitochondrial membrane, and thus to prevent the electrophoretic accumulation of SkQ in the mitochondrial interior. The cells were then stained with rabbit polyclonal antibodies against actin (1:1000) (Sigma-Aldrich Corp., Baleras, Russia) and monoclonal antibody DM1A against tubulin (1:1000) (Sigma-Aldrich Corp.), and their morphology examined using an Axiovert fluorescent microscope equipped with objectives 20× (dry) and 100× (oil immersion Neofluar) (Carl Zeiss, Germany).

In the next series the test system is HCT116 p53−/−. The series can be described thus: Growth of human large intestine carcinoma xenografts, inactivated p53. It counts as in vivo, mouse. An excerpt:
Two human large intestine carcinoma cell sub-lines that differ by p53 status—wild type cells (HCT116 p53+/+)) and cells with inactivated p53 (HCT116 p53−/−)) cell line cultivation see in Bunz et al. (1998) Science, 282:1497-1500; see model description in Sablina et al. (2003), J. Biol. Chem., 278:27362-27371. One million cells were hypodermically implanted into thymus-deprived mice. Mice in each group were divided into 4 sub-groups of 10 mice: one group received water to drink; one group received water with SkQ1 (0.01 nmol) per mouse per day (0.5 nM/kg/day); one group received water with SkQ1 (0.1 nmol) per mouse per day (5 nM/kg/day); one group received water with SkQ1 (1 nmol) per mouse per day (50 nM/kg/day).
The size of the tumors was evaluated every 3 days. After 4 weeks mice were sacrificed and the tumors removed and fixed for histological assay.
A general note: Xenograft models place foreign cells or tissue in a host animal.

The mark [6] stands for this setting: Experiment 1, 5.0 nM/kg ip daily day 1-14.
Setting [7] is: Experiment 1, 50.0 nM/kg ip daily day 1-14.
The mark [8] stands for this setting: Experiment 3, 5.0 nM/kg ip daily day 1-14.

For the compound `CC1=C(C)C(=O)C(CCCCCCCCCC[P+](c2ccccc2)(c2ccccc2)c2ccccc2)=CC1=O` [SkQ1], the “sub-G1 peak (DNA content, propidium iodide)” value in series [1] is given as “accumulation of apoptotic bodies”. Also, the “Immunity to infectious diseases (by mouse life-span)” value in series [2] is listed as “increased HIV mice immunity to infectious diseases”. Further, in series [3] (Ras-transformed fibroblasts incubated with SkQ1), the “Mean cell surface square value” was “increased manifold”. The Monolayer formation entry in series [3] (Ras-transformed fibroblasts treated with SkQ1) was “formed monolayers similar to those of normal fibroblasts”. The “Autopsy findings in organs” value is “no visual signs of pathological changes” in series [4] (setting [6]); “no pathological changes” in series [4] (setting [7]); “no visual signs of pathological changes” in series [4] (Experiment 2, 5.0 nM/kg ip daily day 1-8); “no visual signs of pathological changes” in series [4] (setting [8]). For the same compound, the Treatment tolerance result in series [4] (setting [6]), in series [4] (setting [7]) and in series [4] (setting [8]) was “satisfactory” each time. Further, in series [5] (20 nM, pretreatment for 24 hours), the Cell morphology entry is “induced the formation of elongated cells”. In addition, the “Multinuclear cells in surviving cell fraction” value in series [5] (8th day of cultivation with SkQ1) is “enriched in multinuclear cells”. The “cells remained attached to the surface” value in series [5] (8th day of cultivation with nM SkQ1) is on record as “about 4%”. The “Effect on tumors with inactivated p53 compared to WT p53” value in the series with HCT116 p53−/− (SkQ1 in drinking water) is “stronger effect on the tumor with inactivated p53”. For the same compound, the “Tumor growth vs control group receiving pure water” value with HCT116 p53−/− (SkQ1 in drinking water, 0.5-50 nM/kg/day, 4 weeks, inactivated p53) is reported as “suppression of tumor growth”. The “dose of maximal effect” value in the series with HCT116 p53−/− (added to drinking water) worked out at 5 nM. Besides, the efficient concentration in the series with HCT116 p53−/− (in drinking water, equals 5 nM/kg/day, stated for the HCT116 study) came to 0.1 nmol per mouse per day.

(Values after patent US9408859B2, “Pharmaceutical compositions useful for preventing and treating cancer” (Mitotech SA, priority 2007, dated 2016).)
